How the values were obtained:
[1] = molecular target: T1, arachidonate-5-lipoxygenase (Rattus norvegicus, UniProt P12527); assay: Inhibition of 5-lipoxygenase in prepared macrophages from Wistar rats; assay type: cell-based; conditions: quadruple determinations, mean IC50, read-out: IC50 (50% inhibition of 5-lipoxygenase)
T1 construct: using prepared macrophages from Wistar rats; endogenous in cells; host or cells: prepared macrophages from Wistar rats
T1 sequence (P12527 1-673): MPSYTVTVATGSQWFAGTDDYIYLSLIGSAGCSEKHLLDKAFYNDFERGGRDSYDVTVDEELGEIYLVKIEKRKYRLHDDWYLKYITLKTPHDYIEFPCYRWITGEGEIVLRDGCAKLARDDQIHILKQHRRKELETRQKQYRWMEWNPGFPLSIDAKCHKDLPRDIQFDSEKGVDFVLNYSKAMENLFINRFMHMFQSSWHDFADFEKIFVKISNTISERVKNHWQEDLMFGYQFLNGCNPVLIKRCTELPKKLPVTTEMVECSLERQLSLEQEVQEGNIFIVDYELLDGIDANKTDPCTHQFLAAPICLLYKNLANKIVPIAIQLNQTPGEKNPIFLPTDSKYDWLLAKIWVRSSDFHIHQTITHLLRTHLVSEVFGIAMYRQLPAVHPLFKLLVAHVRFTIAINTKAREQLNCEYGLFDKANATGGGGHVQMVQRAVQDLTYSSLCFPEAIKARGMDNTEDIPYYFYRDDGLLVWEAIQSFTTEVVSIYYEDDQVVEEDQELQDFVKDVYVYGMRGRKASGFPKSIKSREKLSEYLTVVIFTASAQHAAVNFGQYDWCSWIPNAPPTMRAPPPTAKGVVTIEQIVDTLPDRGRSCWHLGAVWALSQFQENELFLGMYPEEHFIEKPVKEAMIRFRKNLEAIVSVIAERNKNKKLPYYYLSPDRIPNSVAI
Excerpt: Murphy, R. C. and Matthews, W. R., Purification and Characterization of Leukotrienes from Mastocytoma Cells, Methods in Enzymology, 86, pp. 409-416.
Argentiere, D. D., Ritchie, D. M. et al., Tepoxalin: A Dual Cyclooxygenase/5-Lipoxygenase Inhibitor of Arachidonic Acid Metabolism with Potent Anti-inflammatory Activity and a Favorable Gastrointestinal Profile, The Journal of Pharmacology and Experimental Therapeutics, Vol. 271, No. 3, 1399-1408, 1994.
Carter, G. W., Young, P. R. et al., 5-Lipoxygenase Inhibitory activity of Zileuton, The Journal of Pharmacology and Experimental Therapeutics, Vol. 256, No. 3, 1991.
The experiments were all conducted as quadruple determinations, by combining four partial experiments in each case were combined to determine the mean IC50 value.

[2] = system: late phase eosinophilia; assay: Inhibition of late phase eosinophilia 24 hours after the inhalational ovalbumin challenge on actively sensitized guinea-pigs; assay type: in vivo; conditions: -2 h; for EOS, B (eosinophils in the group treated with the substance, with challenge): x ± s
Excerpt: Eosinophilic granulocytes play an important part in the transition of allergic diseases, e.g. bronchial asthma, to the chronic stage. Thus the bronchoalveolar lavage fluid (BAL) contains an increased number of eosinophils a few hours after an allergen-induced asthmatic attack. Eosinophils are expected to play an important part in cell damage since they contain histotoxic proteins, like major basic protein (MBP) and eosinophil cation protein (ECP), in their granula. It is also assumed that substances which prevent the infiltration of eosinophils have a therapeutic action against allergic diseases like bronchial asthma.
The inhibition of eosinophil infiltration by the substances was tested in vivo on guinea-pigs actively sensitized against ovalbumin by the substantenous administration of 10 μg of OA, with 1 μg of aluminum hydroxide adjuvant, three weeks before the beginning of the experiment, and a booster dose containing the same amount of OA and aluminum hydroxide was administrated substantaneously one week before the beginning of the experiment. Three weeks after the first sensitization, the animals were placed in a plastic box and exposed to an aerosol of 0.5% OA dissolved in a physiological saline solution. The nebulization time was 20-30 seconds. After 24 hours the animals were intraperitoneally anaesthetized with 1.5 g/kg body weight ethylurethane and a bronchioalveolar lavage was performed with 2×5 ml of physiological saline solution. The lavage fluid was collected and centrifuged at 400 G for 10 minutes and the cell pellet was then resuspended in 1 ml of physiological saline solution. The eosinophils were microscopically counted in a Neubauer chamber after staining using the No. 5877 Becton-Dickinson test kit for eosinophilia. The number of eosinophils was indicated in millions per animal. Each test was also carried out with two control groups with and without antigen challenge.
The percentage inhibition of the eosinophilia in the experimental groups treated with the substance is calculated by the following formula:
(A-C)-(B-C)/(A-C)×100=% inhibition
The test substances were administered orally or intraperitoneally as a triturate in 0.5% 5-hydroxyethylcellulose two hours before the antigen challenge.

[3] = system: tracheal segments from actively sensitized guinea-pigs; assay: Inhibition of the antigen (ovalbumin)-induced contraction of isolated tracheal segments from actively sensitized guinea-pigs; parameters: species or system guinea-pig; conditions: Cavia porcellus, under mepyramine and indomethacin protection, read-out: maximum inhibition (ovalbumin-induced contraction)
Method: For this purpose, isolated tracheal segments from guinea-pigs actively sensitized against ovalbumin by the s.c. administration of 10 μg of ovalbumin with 1 mg of aluminum hydroxide adjuvant, three weeks before removal of the organ, and a booster dose of the same amount of ovalbumin and aluminum hydroxide s.c. one week before removal of the organ. The segments were placed in organ baths filled with a nutrient solution aerated with carbogen which is a mixture of 95% oxygen and 5% carbon dioxide, and kept at 37° C., and were connected to isometric force transducers. After preincubation with mepyramine to eliminate histamine, and indomethacin for the inhibition of cyclooxygenase, 5×10^-7 mol/l carbachol (carbamylcholine chloride) was added and a contraction was induced. 10 μg/ml ovalbumin as an allergen was then added to the bath liquid and the maximum contraction of the tracheal segments which was thereby induced was correlated with the effect of the carbachol as control (=100%). The test substances were added to the organ bath 30 minutes before the allergen-induced contraction. Table 2 below indicates the IC50 values, i.e. the concentrations which cause a 50% inhibition of the contraction of isolated tracheal segments from the guinea-pig. The IC50 values were determined by testing 3-4 concentrations on 4-8 organs in each case.

[4] = system: SRS-A bronchoconstriction in guinea-pigs sensitized with ovalbumin; assay: SRS-A bronchoconstriction in anaesthetized, ovalbumin-sensitized guinea-pigs after inhalation of antigen; assay type: in vivo; conditions: -2 hrs, 1% OA, 20 inspirations
Method: For this purpose, guinea-pigs are actively sensitized against ovalbumin (OA) with 20 μg OA+20 mg Al(OH)3 in 0.5 ml, administered intraperitoneally (i.p.) and a booster dose of the same is administered 14 days later. One week after the booster dose, the animals are i.p. anaesthetized with urethane and connected to an apparatus (Mumed Physiological Recorder 800) for the determination of pulmonary function parameters. The animals are pretreated with mepyramine to antagonize the histamine, with indomethacin to inhibit the formation of prostaglandins, and with propanolol to eliminate β-adrenergic mechanisms. If an allergic reaction is induced after this treatment, the associated bronchospam is extensively attributable to the effect of leukotrienes.
Before the experiment the test substances were administered orally two hours before the challenge. After an equilibration period an asthmatic challenge attack is induced by the nebulization of a 1% ovalbumin solution over 20 inspirations.
The drop in dynamic compliance is used as a suitable and well reproducible parameter for characterizing the action of leukotrienes. Under control conditions, after pretreatment and ovalbumin challenge, guinea-pigs react with a slow drop in compliance of c. 30-40% over 15 minutes.

Compound	IC50 [1] [nM]	other results
1-(2,4-dimethylbenzyl)-5-methoxy-1H-indazole-3-ol [Example 18]	977	
COc1ccc2c(c1)c(O)nn2Cc1ccc(Cl)cc1 [Example 2, 1-(4-chlorobenzyl)-5-methoxy-1H-indazole-3-ol]	400	
COc1ccc2c(c1)c(O)nn2Cc1ccc(Cl)c(Cl)c1 [Example 6, 1-(3,4-dichlorobenzyl)-5-methoxy-1H-indazole-3-ol]	410	% inhibition (eosinophilia) ([2]; 1 mg/kg i.p.): 58.8%; EOS, B (eosinophils in the group treated with the substance, with challenge) ([2]; 1 mg/kg i.p.): 2.9 ± 1.2 mill./animal; % inhibition (eosinophilia) ([2]; 30 mg/kg p.o.): 40.4%; EOS, B (eosinophils in the group treated with the substance, with challenge) ([2]; 30 mg/kg p.o.): 3.5 ± 1.7 mill./animal; % drop in dyn. compliance ([4]; 5.0 mg/kg oral): 25 ± 9.9%; % inhibition ([4]; 5.0 mg/kg oral): 38%; % drop in dyn. compliance ([4]; 10.0 mg/kg oral): 7.0 ± 2.7%; % inhibition ([4]; 10.0 mg/kg oral): 83%; inhibition at 3 µM ([3]; at 3.0 μmol/l): 40%
COc1ccc2c(c1)c(O)nn2Cc1c(Cl)cccc1Cl [Example 8, 1-(2,6-dichlorobenzl)-5-methoxy-1H-indazole3-ol]	750	
COc1ccc2c(c1)c(O)nn2Cc1cccc(Cl)c1F [Example 10, 1-(3-chloro-2-flurobenzyl)-5-methoxy-1H-indazole-3-ol]	829	
COc1ccc2c(c1)c(O)nn2Cc1ccc(Br)cc1 [Example 11, 1-(4-bromobenzyl)-5-methoxy-1H-indazole-3-ol]	765	
COc1ccc2c(c1)c(O)nn2Cc1ccc2ccccc2c1 [Example 23, 5-methoxy-1-naphthalen-2-ylmethyl-1H-indazole-3-ol]	265	
COc1ccc2c(c1)c(O)nn2Cc1cccs1 [Example 24, 5-methoxy-1-thiophen-2-ylmethyl-1H-indazole-3-ol]	500	
COc1ccc2c(c1)c(O)nn2CCOc1ccccc1 [Example 37, 5-methoxy-1-(3-phenoxyethyl)-1H-indazole-3-ol]	745	
COc1ccc2c(c1)c(O)nn2CCCOc1ccccc1 [Example 38, 5-methoxy-1-(3-phenoxypropyl)-1H-indazole-3-ol]	655	
COc1ccc2c(c1)c(O)nn2CCCC(=O)c1ccc(F)cc1 [Example 42, 1-(4-fluorophenyl)-4-(3-hydroxy-5-methoxy-1H-indazole-1-yl)butan-1-one]	679	
COc1ccc2c(c1)c(O)nn2Cc1ccc(OCc2ccc3ccccc3n2)cc1 [Example 49]	86	
COc1ccc2c(c1)c(O)nn2Cc1ccc(OCc2ccccc2)cc1 [[no label printed]]		% drop in dyn. compliance ([4]; 5.0 mg/kg oral): 32 ± 13%; % inhibition ([4]; 5.0 mg/kg oral): 20%; % drop in dyn. compliance ([4]; 10.0 mg/kg oral): 9.3 ± 11%; % inhibition ([4]; 10.0 mg/kg oral): 77%

More lines, main results first:

IC50 [1] [nM]	Compound	other results
171	COc1ccc2c(c1)c(O)nn2Cc1ccc(OCc2ccccc2)cc1 [Example 1, 1-(4-benzyloxybenzyl)-5-methoxy-1H-indazole-3-ol]	% inhibition (eosinophilia) ([2]; 1 mg/kg i.p.): 48.7%; EOS, B (eosinophils in the group treated with the substance, with challenge) ([2]; 1 mg/kg i.p.): 3.3 ± 1.6 mill./animal; % inhibition (eosinophilia) ([2]; 30 mg/kg p.o.): 36.0%; EOS, B (eosinophils in the group treated with the substance, with challenge) ([2]; 30 mg/kg p.o.): 3.7 ± 1.7 mill./animal; inhibition at 1 µM ([3]; at 1.0 μmol/l): 36%
470	COc1ccc2c(c1)c(O)nn2Cc1cccc(Cl)c1 [Example 3, 1-(3-chlorobenzyl)-5-methoxy-1H-indazole-3-ol]	
710	COc1ccc2c(c1)c(O)nn2Cc1ccccc1Cl [Example 4, 1-(2-chlorobenzyl)-5-methoxy-1H-indazole-3-ol]	
100	COc1ccc2c(c1)c(O)nn2Cc1ccc(Cl)cc1Cl [Example 7, 1-(2,4-dichlorobenzyl)-5-methoxy-1H-indazole-3-ol]	
696	COc1ccc2c(c1)c(O)nn2Cc1ccc(C(C)(C)C)cc1 [Example 19, 1-(4-tert-butylbenzyl)-5-methoxy-1H-indazole-3-ol]	
257	COc1ccc2c(c1)c(O)nn2Cc1ccc(-c2ccccc2)cc1 [Example 22, 1-biphenyl-4-ylmethyl-5-methoxy-1H-indazole-3-ol]	
874	COc1ccc2c(c1)c(O)nn2Cc1cc2c(cc1Cl)OCO2 [Example 31]	
299	COc1ccc2c(c1)c(O)nn2CC=Cc1ccccc1 [Example 36, 5-methoxy-1-(3-phenylallyl)-1H-indazole-3-ol]	
150	COc1ccc2c(c1)c(O)nn2CCC(=O)c1ccccc1 [Example 39, 3-(3-hydroxy-5-methoxyindazole-1-yl)phenyl-propan-1-one]	
748	Oc1ccc2c(c1)c(O)nn2Cc1ccc(Cl)c(Cl)c1 [Example 51, 1-(3,4-dichlorobenzyl)-1H-indazole-3,5-diol]	
258	Oc1ccc2c(c1)c(O)nn2Cc1ccc(Cl)cc1Cl [Example 52, 1-(2,4-dichlorobenzyl)-1H-indazole-3,5-diol]	
278	O=C(Nc1ccc(Cl)c(Cl)c1)Nc1ccc2c(c1)c(O)nn2Cc1ccc(Cl)cc1 [Example 61, 1-[1-(4-chlorobenzyl)-3-hydroxy-1H-indazole-5-yl]-3-(3,4-dichlorophenyl)urea]	

Reference: patent publication US5776932A, “1,3,5-tribsubstituted indazole derivatives, processes for preparing, and for pharmacological treatment therewith” (Arzneimittelwerk Dresden G.m.b.H., priority 1996, dated 1998)
